In experiment [1] the test system is Rattus norvegicus. Description: Decrease in number of T cells in peripheral blood after administration for 4 days in rat. As to conditions: T-cell, 96 h, read-out: ID50 (the source's name). The format is functional.
Experiment [2] relates to Rattus norvegicus. The experiment is described as follows: In vivo immunosuppressive effect of compound was determined on host versus graft reaction (HvGR) using popliteal lymph node gain assay in rat. The format is functional. As to conditions: read-out: ID50 (the source's name).

Consider 13 molecules from ChEMBL document CHEMBL1130968, “Synthesis and biological evaluation of 2,2-disubstituted 2-aminoethanols: analogues of FTY720” (1998).

For `CCCCCCCOc1ccc(CCC(N)(CO)CCC)cc1` (stereo unspecified), the ED50 stood at 7.3 mg/kg in experiment [1] and 3.1 mg/kg in experiment [2].
The matching figures for `CCCCCCCOc1ccc(CCC(N)(CO)C(C)C)cc1` (stereo unspecified): 4.5 mg/kg and 2.7 mg/kg.
In the case of `CCCCCCCOc1ccc(CC[C@](C)(N)CO)cc1`, the ED50 in experiment [1] and in experiment [2] was above 1 mg/kg throughout.
As to `CCCCCCCOc1ccc(CC[C@@](C)(N)CO)cc1`, the values for the ED50 in experiment [1] and in experiment [2] were 0.0092 mg/kg and 0.088 mg/kg, respectively.
In the case of `CCCCCCCOc1ccc(CCC(N)(CC)CO)cc1` (stereo unspecified), the ED50 in experiment [1] came out at 0.044 mg/kg; in experiment [2] it was 0.059 mg/kg.
For `CCCCCCCOc1ccc(CC[C@](N)(CO)CCC)cc1`, the ED50 in experiment [1] and in experiment [2] was above 10 mg/kg in each case.
`CCCCCCCCc1ccc(CCC(N)CO)cc1.Cl` (stereo unspecified): the ED50 in experiment [1] and in experiment [2] was above 10 mg/kg throughout.
On to `CCCCCCCOc1ccc(CCC(N)(CO)CO)cc1`, for which the ED50 is 0.014 mg/kg in experiment [1] and 0.049 mg/kg in experiment [2].
On to `CCCCCCCOc1ccc(CCC(N)(CO)CCCC)cc1` (stereo unspecified), for which the ED50 in experiment [1] and in experiment [2] was above 10 mg/kg in each case.
As to `CCCCCCCOc1ccc(CC[C@@](N)(CO)CCC)cc1`, the ED50 in experiment [1] amounted to 4.4 mg/kg; in experiment [2], 0.63 mg/kg.
`CCCCCCCOc1ccc(CCC(C)(N)CO)cc1` (stereo unspecified): the results for the ED50 in experiment [1] and in experiment [2] were 0.061 mg/kg and 0.031 mg/kg, respectively.
The matching figures for `C/C=C/C[C@@H](C)[C@@H](O)[C@H]1C(=O)N[C@@H](CC)C(=O)N(C)CC(=O)N(C)[C@@H](CC(C)C)C(=O)N[C@@H](C(C)C)C(=O)N(C)[C@@H](CC(C)C)C(=O)N[C@@H](C)C(=O)N[C@H](C)C(=O)N(C)[C@@H](CC(C)C)C(=O)N(C)[C@@H](CC(C)C)C(=O)N(C)[C@@H](C(C)C)C(=O)N1C` [CYCLOSPORINE]: above 30 mg/kg and 2.8 mg/kg.
Consider `CCCCCCCCc1ccc(CCC(N)(CO)CO)cc1.Cl` [FINGOLIMOD HYDROCHLORIDE], for which the ED50 in experiment [1] was found to be 0.024 mg/kg; in experiment [2], 0.2 mg/kg.
